Where two headings read alike, the source gives them in different places.
Key:
Format in all cases: cell-based
[1] = test system: Methicillin-Resistant Staphylococcus aureus Isolates; experiment: MIC assay (NCCLS broth dilution), MRSA clinical isolates; conditions: Staphylococcus aureus; for MIC: read-out: Minimal Inhibitory Concentration
Description: (§1) Antibiotics: novobiocin, tetracycline, minocycline, oxacillin, and vancomycin were all purchased from Sigma-Aldrich. Linezolid was obtained from Pfizer, Inc. Novobiocin/tetracycline and novobiocin/minocycline were tested in a 2.5:1 ratio to mimic the serum levels. (Vavra, J. J., 1967, Development of resistance to novobiocin, tetracycline, and novobiocin-tetracycline combinations in Staphylococcus aureus populations, J. Bacteriol 93(3):801). Compounds were tested across a concentration range consisting of 11 two-fold serial dilutions of test agent.
(§2) Stock solutions were prepared in sterile deionized water; novobiocin stock concentration was 1600 μg/mL and all other drugs stock solutions were prepared at 640 μg/mL. The stock solutions were allowed to sit at room temperature for one hour to auto-sterilize prior to use in the test. All compounds were in solution in water. The control agent was vancomycin hydrochloride, Sigma Chemical Lot # 015K0825.
(§3) The test organisms for the assay were 52 MSSA, 52 MRSA, 8 VISA, 7 VISE, and 3 LRSA isolates. Quality control strains included Staphylococcus aureus 0100 (ATCC 29213) and Enterococcus faecalis (ATCC 29212).
(§4) The MIC assay was performed according to published NCCLS guidelines. (National Committee for Clinical Laboratory Standards, Methods for Dilution Antimicrobial Susceptibility Tests for Bacteria that Grow Aerobically; Approved Standard-Sixth Edition, NCCLS Document M7-A6 [ISBN 1-56238-486-4], NCCLS, 940 West Valley Road, Suite 1400, Wayne, Pa. 19087-1898 USA, 2003). The test medium was Mueller Hinton II Broth for all organisms.

[2] = test system: Vancomycin-intermediate Staphylococcus epidermidis Isolates; experiment: MIC assay (NCCLS broth dilution), VISE isolates; conditions: for MIC: read-out: Minimal Inhibitory Concentration
Description: as §1, §2, §3, §4

[3] = test system: Unconfirmed Vancomycin-intermediate Staphylococcus epidermidis Isolates; experiment: MIC assay (NCCLS broth dilution), unconfirmed VISE isolates; conditions: for MIC: read-out: Minimal Inhibitory Concentration
Description: as §1, §2, §3, §4

[4] = test system: Linezolid-Resistant Staphylococcus aureus Isolates; experiment: MIC assay (NCCLS broth dilution), LRSA isolates; conditions: for MIC: read-out: Minimal Inhibitory Concentration
Description: as §1, §2, §3, §4

[5] = 52 MRSA isolates, combinations at 2.5:1, given as NB/partner

CN(C)c1ccc(O)c2c1C[C@H]1C[C@H]3[C@H](N(C)C)C(O)=C(C(N)=O)C(=O)[C@@]3(O)C(O)=C1C2=O [MI, minocycline]
0.25 µg/mL: MIC ([2]; Staphylococcus epidermidis, VISE isolate 2022, 03MAR06) | MIC ([3]; Staphylococcus epidermidis, Unconfirmed VISE isolate 2024, 09MAR06) | MIC ([3]; Staphylococcus epidermidis, Unconfirmed VISE isolate 2026, 03MAR06) | MIC50 ([3]; Staphylococcus epidermidis, 3 unconfirmed VISE isolates, combinations at 2.5:1)
16 µg/mL: MIC ([1]; MRSA isolate 1729, 03MAR06)
2 µg/mL: MIC ([4]; Staphylococcus aureus, LRSA isolate 1725, 24FEB06)
.06 to .25 µg/mL: MIC Range ([2]; 4 VISE isolates, combinations at 2.5:1)
0.06 µg/mL: MIC ([1]; MRSA isolate 765, 22FEB06) | MIC ([1]; MRSA isolate 768, 22FEB06) | MIC ([1]; MRSA isolate 778, 24FEB06) | MIC ([1]; MRSA isolate 1222, 03MAR06) | MIC ([1]; MRSA isolate 1653, 03MAR06) | MIC ([1]; MRSA isolate 1658, 03MAR06) | MIC ([1]; MRSA isolate 1659, 03MAR06) | MIC ([2]; Staphylococcus epidermidis, VISE isolate 2021, 09MAR06) | MIC ([2]; Staphylococcus epidermidis, VISE isolate 2023, 03MAR06) | MIC50 ([2]; Staphylococcus epidermidis, 4 VISE isolates, combinations at 2.5:1)
1 µg/mL: MIC ([1]; MRSA isolate 2009, 24FEB06)
0.12 to 2 µg/mL: MIC Range ([4]; 3 LRSA isolates, combinations at 2.5:1)
0.12 to 0.25 µg/mL: MIC Range ([3]; 3 unconfirmed VISE isolates, combinations at 2.5:1)
0.12 µg/mL: MIC ([1]; MRSA isolate 766, 22FEB06) | MIC ([1]; MRSA isolate 767, 22FEB06) | MIC ([1]; MRSA isolate 769, 22FEB06) | MIC ([1]; MRSA isolate 770, 22FEB06) | MIC ([1]; MRSA isolate 771, 22FEB06) | MIC ([1]; MRSA isolate 772, 22FEB06) | MIC ([1]; MRSA isolate 773, 24FEB06) | MIC ([1]; MRSA isolate 774, 24FEB06) | MIC ([1]; MRSA isolate 775, 24FEB06) | MIC ([1]; MRSA isolate 776, 24FEB06) | MIC ([1]; MRSA isolate 777, 24FEB06) | MIC ([1]; MRSA isolate 886, 24FEB06) | MIC ([1]; MRSA isolate 887, 24FEB06) | MIC ([1]; MRSA isolate 888, 24FEB06) | MIC ([1]; MRSA isolate 889, 24FEB06) | MIC ([1]; MRSA isolate 1004, 24FEB06) | MIC ([1]; MRSA isolate 1010, 22FEB06) | MIC ([1]; MRSA isolate 1012, 22FEB06) | MIC ([1]; MRSA isolate 1013, 22FEB06) | MIC ([1]; MRSA isolate 1014, 22FEB06) | MIC ([1]; MRSA isolate 1015, 22FEB06) | MIC ([1]; MRSA isolate 1016, 22FEB06) | MIC ([1]; MRSA isolate 1017, 22FEB06) | MIC ([1]; MRSA isolate 1021, 22FEB06) | MIC ([1]; MRSA isolate 1022, 22FEB06) | MIC ([1]; MRSA isolate 1023, 22FEB06) | MIC ([1]; MRSA isolate 1024, 22FEB06) | MIC ([1]; MRSA isolate 1025, 22FEB06) | MIC ([1]; MRSA isolate 1135, 22FEB06) | MIC ([1]; MRSA isolate 1136, 22FEB06) | MIC ([1]; MRSA isolate 1137, 22FEB06) | MIC ([1]; MRSA isolate 1138, 22FEB06) | MIC ([1]; MRSA isolate 1222, 24FEB06) | MIC ([1]; MRSA isolate 1661, 03MAR06) | MIC ([1]; MRSA isolate 1730, 24FEB06) | MIC ([1]; MRSA isolate 2010, 24FEB06) | MIC ([1]; MRSA isolate 2011, 24FEB06) | MIC50 [1, 5] | MIC90 [1, 5] | MIC ([2]; Staphylococcus epidermidis, VISE isolate 2020, 09MAR06) | MIC ([3]; Staphylococcus epidermidis, Unconfirmed VISE isolate 2025, 09MAR06) | MIC ([4]; Staphylococcus aureus, LRSA isolate 1651, 24FEB06) | MIC ([4]; Staphylococcus aureus, LRSA isolate 1652, 24FEB06) | MIC50 ([4]; Staphylococcus aureus, 3 LRSA isolates, combinations at 2.5:1)

From patent publication US20070281992A1, “COMBINATION OF GYRASE B INHIBITORS AND PROTEIN SYNTHESIS INHIBITORS AND USES THEREOF” (priority 2006, published 2007)
